The results in this text go back to ChEMBL document CHEMBL5058564, “EUbOPEN Chemogenomics Library 2 (Incucyte)” (2022).

Holding throughout (type): toxicity, cell-based
For one series, the system named is HEK-293T. Put plainly: Incucyte cell viability with HEK293T. Particulars: human, 10 µM, compound concentration 10 uM.
The subject of another series is Fibroblast. Put plainly: Incucyte cell viability with human fibroblast. To be noted: 10 µM, compound concentration 10 uM.
In a further series the test system is U2OS. Briefly: Incucyte cell viability with U2OS. To be noted: human, 10 µM, compound concentration 10 uM.
Where [1] appears, read: 0 h, replicate number 1, timepoint 0 hours.
The mark [2] stands for this setting: 0 h, replicate number 2, timepoint 0 hours.
Where [3] appears, read: 6 h, replicate number 1, timepoint 6 hours.
The mark [4] stands for this setting: 12 h, replicate number 1, timepoint 12 hours.
[5] abbreviates: 12 h, replicate number 2, timepoint 12 hours.
The mark [6] stands for this setting: 18 h, replicate number 1, timepoint 18 hours.
The mark [7] stands for this setting: 18 h, replicate number 2, timepoint 18 hours.
Where [8] appears, read: 24 h, replicate number 1, timepoint 24 hours.
Setting [9] is: 24 h, replicate number 2, timepoint 24 hours.
[10] abbreviates: 6 h, replicate number 2, timepoint 6 hours.
Further: unitless GR value; below 1 slowed growth and below 0 cell loss.

As to `Cc1nc(C#Cc2cccnc2)cs1.Cl`, the “Growth Rate” value was determined as 0.27 with HEK-293T (setting [1]); 0.23 with HEK-293T (setting [2]); 0.68 with HEK-293T (setting [3]); 0.63 in the series with HEK-293T (setting [4]); 0.87 with HEK-293T (setting [5]); 0.84 with HEK-293T (setting [6]). The “Growth Rate” value in the series with HEK-293T (setting [7]) is recorded as 0.94; in the series on HEK-293T (setting [8]), 0.76; in the series with HEK-293T (setting [9]), 0.73; in the series on Fibroblast (setting [2]) it was 0.91; in the series with Fibroblast (setting [3]), 0.49; with Fibroblast (setting [10]), 0.58. Moreover, the “Growth Rate” value with Fibroblast (setting [4]) turned out to be 0.32; in the series with Fibroblast (setting [6]), 0.37; in the series with Fibroblast (setting [8]) it was 0.25; with U2OS (setting [1]), 0; with U2OS (setting [2]), 0.3; in the series with U2OS (setting [10]) it was 0.72. Also, the “Growth Rate” value in the series with U2OS (setting [5]) is on record as 0.84; in the series with U2OS (setting [6]) it was 0.97.

`CCCCCCCCCCCCC/C=C/[C@@H](O)[C@@H](N)COP(=O)(O)O`: the “Growth Rate” value in the series with HEK-293T (setting [3]) was -0.22; with HEK-293T (setting [10]), -0.17; in the series on HEK-293T (setting [4]), 0.04; with HEK-293T (setting [5]), 0.22; in the series with HEK-293T (setting [6]), 0.27; in the series on HEK-293T (setting [8]), 0.48. Further, the “Growth Rate” value with HEK-293T (setting [9]) is 0.52; in the series with Fibroblast (setting [3]), -0.68; with Fibroblast (setting [10]) it was -0.13; in the series with Fibroblast (setting [4]), 0.19; with Fibroblast (setting [5]), 0.17; in the series on Fibroblast (setting [6]), 0.53. Besides, the “Growth Rate” value with Fibroblast (setting [8]) was determined as 0.82; in the series on Fibroblast (setting [9]), 0.63; in the series with U2OS (setting [2]) it was 0.31; with U2OS (setting [4]), 0.95; in the series on U2OS (setting [6]) it was 0.99; with U2OS (setting [7]), 0.89. The “Growth Rate” value is reported as 0.88 in the series with U2OS (setting [8]) and 0.89 with U2OS (setting [9]).

As for `CC1(C)SSC(C)(C)[C@@H](NC(=O)[C@@H](N)Cc2ccc(O)cc2)C(=O)NCC(=O)N[C@@H](Cc2ccccc2)C(=O)N[C@H]1C(=O)O.O=C(O)C(F)(F)F`, the “Growth Rate” value in the series on HEK-293T (setting [1]) turned out to be 0.77; with HEK-293T (setting [3]), 0.73; with HEK-293T (setting [5]), 0.85; with HEK-293T (setting [6]), 0.85; in the series with Fibroblast (setting [1]) it was 0.24; in the series on Fibroblast (setting [2]) it was 0.08. For the same compound, the “Growth Rate” value with Fibroblast (setting [3]) is listed as 0.67; with Fibroblast (setting [8]), 0.94; with U2OS (setting [2]), -0.57; in the series on U2OS (setting [10]), 0.94; in the series on U2OS (setting [7]) it was 0.98; in the series on U2OS (setting [9]), 0.94.

For the compound `CCCCC/C=C\C/C=C\C/C=C\C/C=C\CCCC(=O)NCC(=O)O` [ARACHIDONOYL GLYCINE], the “Growth Rate” value in the series on HEK-293T (setting [1]) came out at 0.53; in the series with HEK-293T (setting [2]) it was 0.42; in the series with HEK-293T (setting [4]), 0.8; in the series with HEK-293T (setting [6]), 0.64; with HEK-293T (setting [7]), 0.93; in the series with HEK-293T (setting [8]), 0.52. Besides, the “Growth Rate” value was 0.83 with HEK-293T (setting [9]); 0.41 in the series on Fibroblast (setting [1]); 0.25 in the series on Fibroblast (setting [2]); 0.18 in the series on Fibroblast (setting [3]); 0.75 with Fibroblast (setting [10]); 0.75 in the series with Fibroblast (setting [4]). The “Growth Rate” value is listed as 0.99 in the series with Fibroblast (setting [5]); 0.78 with Fibroblast (setting [6]); 0.93 with Fibroblast (setting [7]); 0.8 in the series on Fibroblast (setting [8]); 0.79 with Fibroblast (setting [9]); -0.29 with U2OS (setting [1]). The “Growth Rate” value in the series on U2OS (setting [2]) was 0.28; with U2OS (setting [3]), 0.64; in the series on U2OS (setting [4]), 0.64; with U2OS (setting [5]), 0.9; in the series on U2OS (setting [6]), 0.72; with U2OS (setting [7]) it was 0.97. Moreover, in the series with U2OS (setting [8]), the “Growth Rate” value was determined as 0.76.

Consider `CC[C@H](NC(=O)c1c(C)c(-c2ccccc2)nc2ccccc12)c1ccccc1` [SB-222200], for which the “Growth Rate” value with HEK-293T (setting [3]) was 0.76; with HEK-293T (setting [10]) it was 0.41; in the series on HEK-293T (setting [4]), 0.77; in the series on HEK-293T (setting [5]), 0.72; with HEK-293T (setting [6]) it was 0.97; with HEK-293T (setting [8]) it was 0.88. For the same compound, the “Growth Rate” value in the series with Fibroblast (setting [3]) is reported as 0.45; in the series with Fibroblast (setting [10]) it was -0.34; with Fibroblast (setting [4]), 0.45; with Fibroblast (setting [5]) it was 0.48; in the series with Fibroblast (setting [6]), 0.64; with Fibroblast (setting [7]), 0.91. The “Growth Rate” value is 0.67 in the series with Fibroblast (setting [8]); 0.98 with Fibroblast (setting [9]); -1 in the series on U2OS (setting [2]); 0.93 with U2OS (setting [5]); 0.84 with U2OS (setting [7]); 0.93 in the series on U2OS (setting [9]).

Consider `CCCN[C@H]1CCc2nc(N)sc2C1.Cl.Cl`, for which the “Growth Rate” value with HEK-293T (setting [1]) is 0.73; with HEK-293T (setting [2]) it was 0.77; with HEK-293T (setting [10]), 0.07; in the series on HEK-293T (setting [4]) it was 0.99; with HEK-293T (setting [5]), 0.53; in the series with HEK-293T (setting [6]), 0.97. The “Growth Rate” value is 0.77 in the series on HEK-293T (setting [7]); 0.93 with HEK-293T (setting [8]); 0.81 in the series with HEK-293T (setting [9]); -0.13 with Fibroblast (setting [2]); -0.38 in the series with Fibroblast (setting [3]); 0.73 in the series with Fibroblast (setting [10]). The “Growth Rate” value in the series on Fibroblast (setting [4]) was determined as 0.31; with Fibroblast (setting [5]), 0.7; in the series on Fibroblast (setting [6]) it was 0.84; in the series with U2OS (setting [2]), 0.18; in the series on U2OS (setting [5]), 0.97; in the series on U2OS (setting [7]) it was 0.92.

As for `Cc1cc(CN)cc(C)c1-c1ncn(C)c1-c1cncn1C`, the “Growth Rate” value is given as 0.03 in the series with HEK-293T (setting [1]); -0.09 with HEK-293T (setting [2]); 0.88 in the series on HEK-293T (setting [4]); 0.89 with HEK-293T (setting [8]); 0.66 with Fibroblast (setting [1]); -0.16 in the series with Fibroblast (setting [2]). The “Growth Rate” value is listed as 0.41 in the series with Fibroblast (setting [3]); -0.39 in the series with U2OS (setting [1]); 0.16 in the series with U2OS (setting [2]); 0.65 in the series on U2OS (setting [3]); 0.66 in the series with U2OS (setting [10]); 0.71 in the series with U2OS (setting [4]). In addition, the “Growth Rate” value in the series on U2OS (setting [5]) is on record as 0.95; in the series on U2OS (setting [6]), 0.74; with U2OS (setting [8]), 0.73.

In the case of `Cl.N=C(N)NC(=O)Cc1c(Cl)cccc1Cl` [GUANFACINE HYDROCHLORIDE], the “Growth Rate” value turned out to be 0.44 in the series with HEK-293T (setting [1]); 0.87 with HEK-293T (setting [3]); 0.84 with HEK-293T (setting [4]); 0.76 with HEK-293T (setting [6]); 0.76 in the series on HEK-293T (setting [8]); 0.58 in the series with Fibroblast (setting [1]). For the same compound, the “Growth Rate” value in the series on Fibroblast (setting [2]) stood at 0.01; with Fibroblast (setting [6]) it was 0.88; in the series with Fibroblast (setting [7]), 0.92; in the series with Fibroblast (setting [8]) it was 0.38; in the series with Fibroblast (setting [9]), 0.81; with U2OS (setting [3]), 0.84. The “Growth Rate” value in the series on U2OS (setting [4]) worked out at 0.99.

Regarding `COc1cc(C(=O)N(CCCc2ccccc2)Cc2ccc(CC(=O)O)cc2)cc(OC)c1C`, the “Growth Rate” value in the series with HEK-293T (setting [1]) is 0.55; with HEK-293T (setting [2]), 0.84; with Fibroblast (setting [1]) it was -0.55; in the series on Fibroblast (setting [2]), 0.01; in the series on U2OS (setting [1]), -0.86; with U2OS (setting [10]) it was 0.79. In addition, the “Growth Rate” value with U2OS (setting [5]) amounted to 0.94; with U2OS (setting [7]), 0.97; with U2OS (setting [9]), 0.96.

With `Br.Cc1cccc(C2CN(C)CCc3c2cc(O)c(O)c3Cl)c1` (stereo unspecified), the “Growth Rate” value in the series with HEK-293T (setting [2]) is 0.8; in the series on HEK-293T (setting [3]), 0.81; in the series on HEK-293T (setting [10]) it was 0.45; in the series with HEK-293T (setting [4]), 0.71; in the series on HEK-293T (setting [5]) it was 0.8; in the series with HEK-293T (setting [6]), 0.95. Also, the “Growth Rate” value with HEK-293T (setting [7]) is reported as 0.81; with HEK-293T (setting [8]), 0.93; in the series with Fibroblast (setting [1]), -0.09; in the series on Fibroblast (setting [2]), 0.18; in the series on U2OS (setting [10]), 0.97; with U2OS (setting [4]) it was 0.92. Also, the “Growth Rate” value in the series on U2OS (setting [6]) is on record as 0.87; in the series on U2OS (setting [7]) it was 0.92; in the series on U2OS (setting [8]), 0.84; with U2OS (setting [9]) it was 0.97.
